Patent publication US5468742A, “8-vinyl- and 9-ethinyl-quinolone-carboxylic acids” (Bayer Aktiengesellschaft, priority 1991, dated 1995)
Converted amounts (≈) assume the structure as drawn. Where two headings read alike, the source gives them in different places.

How the values were obtained:
Assay in all cases: MIC, serial dilution on Iso-Sensitest agar
Format in all cases: cell-based
E. coli Neumann = conditions: Escherichia coli
Description: (§1) The minimum inhibitory concentrations (MIC) were determined on Iso-Sensitest agar (Oxoid) using the serial dilution method. For each test substance, a series of agar plates was prepared which contained concentrations of the active compound which decreased as the dilution was doubled. The agar plates were inoculated using a multipoint inoculator (Denley). The inocula used were overnight cultures of the pathogens which had previously been diluted to such an extent that each inoculation point contained approx. 10^4 colony-forming units. The inoculated agar plates were incubated at 37° C., and growth of the pathogens was determined after approx. 20 hours. The MIC value (μg/ml) indicates the lowest concentration of active compound where no growth was discernible to the naked eye.
(§2) The table below lists the MIC values of some of the compounds according to the invention compared with ciprofloxacin.

[1] = test system: Enterococcus faecalis 27101
Description: as §1, §2

Micrococcus luteus 9341 = test system: Micrococcus luteus 9341
Description: as §1, §2

[2] = test system: Staphylococcus aureus ICB 25701
Description: as §1, §2

[3] = test system: Enterococcus faecalis 9790
Description: as §1, §2

[4] = test system: Acinetobacter calcoaceticus 14068
Description: as §1, §2

[5] = test system: Staphylococcus aureus 1756
Description: as §1, §2

[6] = test system: Staphylococcus aureus 133
Description: as §1, §2

[7] = E. coli Neumann, approx. 10^4 CFU per inoculation point, 37° C., approx. 20 hours, read-out: MIC
[8] = Enterococcus faecalis 27101, approx. 10^4 CFU per inoculation point, 37° C., approx. 20 hours, read-out: MIC
[9] = Micrococcus luteus 9341, approx. 10^4 CFU per inoculation point, 37° C., approx. 20 hours, read-out: MIC
[10] = ICB25701, Staphylococcus aureus ICB 25701, approx. 10^4 CFU per inoculation point, 37° C., approx. 20 hours, read-out: MIC
[11] = Enterococcus faecalis 9790, approx. 10^4 CFU per inoculation point, 37° C., approx. 20 hours, read-out: MIC
[12] = Acinetobacter calcoaceticus 14068, approx. 10^4 CFU per inoculation point, 37° C., approx. 20 hours, read-out: MIC
[13] = Staphylococcus aureus 1756, approx. 10^4 CFU per inoculation point, 37° C., approx. 20 hours, read-out: MIC
[14] = Staphylococcus aureus 133, approx. 10^4 CFU per inoculation point, 37° C., approx. 20 hours, read-out: MIC

SMILES	MIC (E. coli Neumann; [7])	MIC [1, 8]	MIC (Micrococcus luteus 9341; [9])	MIC [2, 10]	MIC [3, 11]	MIC [4, 12]	MIC [5, 13]	MIC [6, 14]	MIC (E. coli Neumann; 20 h)	MIC ([1]; Enterococcus faecalis, 27101, 20 h)	MIC (Micrococcus luteus 9341; Micrococcus luteus, 9341, 20 h)	MIC ([2]; Staphylococcus aureus, ICB25701, 20 h)	MIC ([3]; Enterococcus faecalis, 9790, 20 h)	MIC ([4]; Acinetobacter calcoaceticus, 14068, 20 h)	MIC ([5]; Staphylococcus aureus, 1756, 20 h)	MIC ([6]; Staphylococcus aureus, 133, 20 h)
C#Cc1c(N2CC3NCCOC3C2)c(F)cc2c(=O)c(C(=O)O)cn(C3CC3)c12 (centres unmarked) [Example 7, 1-cyclopropyl-8-ethinyl-6-fluoro-1,4-dihydro-7-(2-oxa-5,8-diazabicyclo[4.3.0]non-8-yl)-4-oxo-3-quinolinecarboxylic acid]	0.13 µg/mL (≈ 0.327 µM)	0.25 µg/mL (≈ 0.629 µM)	1 µg/mL (≈ 2.52 µM)	1 µg/mL (≈ 2.52 µM)	0.25 µg/mL (≈ 0.629 µM)	0.25 µg/mL (≈ 0.629 µM)	0.06 µg/mL (≈ 0.151 µM)	0.06 µg/mL (≈ 0.151 µM)	–	–	–	–	–	–	–	–
O=C(O)c1cn(C2CC2)c2cc(N3CCNCC3)c(F)cc2c1=O [Ciprofloxacin, ciprofloxacin, reference compound]	–	–	–	–	–	–	–	–	0.02 µg/mL (≈ 0.0604 µM)	0.5 µg/mL (≈ 1.51 µM)	2 µg/mL (≈ 6.04 µM)	16 µg/mL (≈ 48.3 µM)	0.5 µg/mL (≈ 1.51 µM)	0.25 µg/mL (≈ 0.754 µM)	0.25 µg/mL (≈ 0.754 µM)	0.25 µg/mL (≈ 0.754 µM)
CC#Cc1c(N2CC3NCCOC3C2)c(F)cc2c(=O)c(C(=O)O)cn(C3CC3)c12 (centres unmarked) [Example 8, 1-cyclopropyl-6-fluoro-1,4-dihydro-7-(2-oxa-5,8-diazabicyclo[4.3.0]non-8-yl)-4-oxo-8-(propin-1-yl)-3-quinolinecarboxylic acid]	0.25 µg/mL (≈ 0.608 µM)	0.5 µg/mL (≈ 1.22 µM)	2 µg/mL (≈ 4.86 µM)	4 µg/mL (≈ 9.72 µM)	1 µg/mL (≈ 2.43 µM)	0.5 µg/mL (≈ 1.22 µM)	0.13 µg/mL (≈ 0.316 µM)	0.13 µg/mL (≈ 0.316 µM)	–	–	–	–	–	–	–	–
C#Cc1c(N2CC3CC=CC(NC)C3C2)c(F)cc2c(=O)c(C(=O)O)cn(C3CC3)c12 (centres unmarked) [Example 13, 1-cyclopropyl-8-ethinyl-6-fluoro-1,4-dihydro-7-(4-methylamino-1,3,3a,4,7,7a-hexahydroisoindol-2-yl)-4-oxo-3-quinolinecarboxylic acid]	0.13 µg/mL (≈ 0.308 µM)	0.13 µg/mL (≈ 0.308 µM)	0.25 µg/mL (≈ 0.593 µM)	0.25 µg/mL (≈ 0.593 µM)	0.13 µg/mL (≈ 0.308 µM)	0.13 µg/mL (≈ 0.308 µM)	0.06 µg/mL (≈ 0.142 µM)	0.06 µg/mL (≈ 0.142 µM)	–	–	–	–	–	–	–	–
C#Cc1c(N2C[C@@H]3CCCN[C@@H]3C2)c(F)cc2c(=O)c(C(=O)O)cn(C3CC3)c12 (relative stereo) [Example 5, 1-cyclopropyl-7-(cis-2,8-diazabicyclo[4.3.0]non-8-yl)-8-ethinyl-6-fluoro-1,4-dihydro-4-oxo-3-quinolinecarboxylic acid]	0.02 µg/mL (≈ 0.0506 µM)	0.13 µg/mL (≈ 0.329 µM)	0.5 µg/mL (≈ 1.26 µM)	1 µg/mL (≈ 2.53 µM)	0.13 µg/mL (≈ 0.329 µM)	0.03 µg/mL (≈ 0.0759 µM)	0.03 µg/mL (≈ 0.0759 µM)	0.13 µg/mL (≈ 0.329 µM)	–	–	–	–	–	–	–	–
C=C(Cl)c1c(N2CCN(C)CC2)c(F)cc2c(=O)c(C(=O)O)cn(C3CC3)c12.Cl [Example 17, 8-(1-chlorovinyl)-1-cyclopropyl-6-fluoro-1,4-dihydro-7-(4-methyl-1-piperazinyl)-4-oxo-3-quinolinecarboxylic acid hydrochloride]	0.03 µg/mL	0.25 µg/mL	1 µg/mL	4 µg/mL	0.25 µg/mL	0.03 µg/mL	0.13 µg/mL	0.13 µg/mL	–	–	–	–	–	–	–	–
C=C(C)C#Cc1c(N2CCN(C)CC2)c(F)cc2c(=O)c(C(=O)O)cn(C3CC3)c12 [Example 14, 1-cyclopropyl-6-fluoro-1,4-dihydro-8-(3-methyl-but-3-en-1-inyl)-7-(4-methyl-1-piperazinyl)-4-oxo-3-quinolinecarboxylic acid]	0.02 µg/mL (≈ 0.0488 µM)	1 µg/mL (≈ 2.44 µM)	8 µg/mL (≈ 19.5 µM)	32 µg/mL (≈ 78.2 µM)	1 µg/mL (≈ 2.44 µM)	0.03 µg/mL (≈ 0.0733 µM)	0.02 µg/mL (≈ 0.0488 µM)	0.02 µg/mL (≈ 0.0488 µM)	–	–	–	–	–	–	–	–
C#Cc1c(N2CCN(C)CC2)c(F)cc2c(=O)c(C(=O)O)cn(C3CC3)c12 [Example 1, 1-cyclopropyl-8-ethinyl-6-fluoro-1,4-dihydro-7-(4-methyl-1-piperazinyl)-4-oxo-3-quinolinecarboxylic acid]	0.02 µg/mL (≈ 0.0541 µM)	0.25 µg/mL (≈ 0.677 µM)	–	4 µg/mL (≈ 10.8 µM)	0.25 µg/mL (≈ 0.677 µM)	–	0.13 µg/mL (≈ 0.352 µM)	0.13 µg/mL (≈ 0.352 µM)	–	–	–	–	–	–	–	–
